Measurements: the NIST ThermoML archive (doi:10.1016/j.tca.2014.07.002)

Test: xn = mol fraction of the nth substance listed
Details: 101 kPa, Liquid, x1 = 0.423; for mass density: Buoyancy - hydrostatic balance

O=C([O-])[O-].[Na+].[Na+] [sodium carbonate] + [Cl-].[Na+]
Details | mass density [kg/m3] | viscosity [mPa·s]
973 K | 1830 | 17.02
1023 K | 1810 | 9.285
1073 K | 1800 | 5.31
1123 K | 1760 | 2.468
1173 K | 1730 | 1.219
1223 K | 1720 | –
1273 K | 1680 | –
